Consider 1 compound from US12240870B2, “Sequencing method for CAR T cell therapy” (Purdue Research Foundation, priority 2018, dated 2025).

“Also recorded” adds a separate entry of the source.

The subject of one data set is MDA-MB-231 xenografts. In words: EC17 dose finding and CRS assessment in MDA-MB-231 tumor-bearing mice. It counts as in vivo. The following applies: for human IFNγ in mouse plasma, fold over tumor-bearing mice with CAR-T cells only: all EC17 treated tumor cohorts. From the text:
Panel A: Schematic diagram to show dose scheduling of CAR-T cells (˜10 million “clinical facsimile”) plus EC17 dosed 3 different ways in NSG mice without or with pre-established MDA-MB-231 xenografts. Tumor-free mice received EC17 SIW 500 nmol/kg (2 doses on days 2 and 10). Tumor-bearing mice received EC17 as follows: EC17 SIW 500 nmol/kg (5 doses on days 2, 10, 17, 24, and 31), EC17 M/Th/M_Escalation-1 (repeats of 5/50/500 nmol/kg on Monday/Thursday/Monday followed by 1-week break, i,e. on days 2, 6, 10, 17, 20, 24, and 31), or EC17 M/Th/M_Escalation-2 (repeats of 5/100/1000 nmol/kg on Monday/Thursday/Monday followed by 1-week break, i.e. days 2, 6, 10, 17, 20, 24, and 31). Panel B: Systemic levels of human IFNγ on a log 2 scale detected in mouse plasma on days 11 and 12 after CAR-T cell injection in tumor-bearing versus tumor-free mice (i.e., ˜20 and 42 hours after the previous EC17 dose in all treated cohorts). Panel C: Circulating CAR-T cells in mouse blood identified as human CD3ε+ EGFRt+ events by flow cytometry and enumerated per 100 μL of whole blood. Panel D: Measurements of change in body weight and tumor volume in tumor-bearing mice that received CAR-T cells only or CAR-T cells plus EC17 dosed 3 different ways (dashed lines indicated each EC17 dose). n=5 mice per group. All data represent mean±s.e.m. * p<0.05 by one-way ANOVA test.
All animal care and use were performed according to NIH guidelines and in compliance with protocols approved by the Purdue University Animal Use and Care Committee. Female 4 to 5-week-old NOD/SCID gamma (NSG™) mice (stock number: 005557) were purchased from The Jackson Laboratory (Bar Harbor, ME). Unless specifically indicated, all animals were maintained on a FA-deficient diet (TestDiet, St. Louis, MO) upon arrival and throughout the study. To establish subcutaneous xenografts, MDA-MB-231 and HOS-FRα were implanted in the right flank region at 2.5×10^6 and 1×10^6 cells per animal, respectively. For intravenous xenografts, THP1-FRβ cells were inoculated at 5×10^6 cells per animal. Subcutaneous tumors were measured 2-3 times per week with a caliper and calculated using the ellipsoidal formula (length×width^2)/2. […] All animal doses (CAR-T cells, EC17, sodium fluorescein) were given intravenously.
In a therapeutic setting, EC17 CAM can be given before or after CAR-T cell injection. As described herein, the first dose of EC17 was administered 2-3.5 days after CAR-T cells to allow for an observation period of human T cells in tumor-bearing mice. Two batches of unsorted E2-CAR-T cells (23% or 39% EGFRt+, 1:1 CD4/CD8) were used for in vivo studies. On the day of infusion for each experiment (day 0), frozen CAR-T cells were quickly thawed at 37° C., washed 2× with Dulbecco's 1×PBS (pH 7.4) and injected into the tail vein at desired EGFRt+ E2-CAR-T cell doses. In addition, a small aliquot of CAR-T cells was analyzed by flow cytometry for CD4 to CD8 ratio and differentiation status of CAR-T cells. On the first day of EC17 dose, tumor-bearing animals were randomly assigned into groups according to their tumor sizes or the same number of days post intravenous implantation (i.e., THP1-FRβ).
For MDA-MB-231 studies, mice received a high dose (˜10 million) of a “clinical facsimile” of E2-CAR-T cells (˜39% EGFRt+) with a low differentiation profile (FIG. 9). Two days later, 3 different treatment regimens of EC17 were started at an average tumor size of ˜293±39 mm^3 (FIG. 12). The EC17 dosing was given once-a-week (SIW) at 500 nmol/kg on Mondays, or as escalating doses of 5, 50 or 100, and 500 or 1000 nmol/kg (i.e., 5/50/500 or 5/100/1000) on Monday, Thursday, and Monday with a 6-day break in-between cycles. Control mice were left untreated (received CAR-T cells but no EC17). For comparison, a cohort of tumor-free littermates also received the same number of CAR-T cells without or with EC17 SIW at 500 nmol/kg. […]

The test system of another data set is THP1-FRβ xenografts. The data set is described as follows: THP1-FRβ AML intravenous xenograft, E2 CAR-T cells plus EC17. It counts as in vivo, NSG mice.

In the data set with MDA-MB-231 xenografts (EC17-treated cohorts (SIW, Escalation-1, Escalation-2)), `Nc1nc2ncc(CNc3ccc(C(=O)N[C@@H](CCC(=O)NCCNC(=S)Nc4ccc(-c5c6ccc(=O)cc-6oc6cc(O)ccc56)c(C(=O)O)c4)C(=O)O)cc3)nc2c(=O)[nH]1` [EC17, FA-(γ)-ethylenediamine-FITC] displayed a cures of 100%. The body weight loss entry with MDA-MB-231 xenografts (EC17 Escalation-2 regimen 5/100/1000 nmol/kg M/Th/M) is recorded as “persistent body weight loss”; in the data set on MDA-MB-231 xenografts (tumor-bearing cohorts, continued EC17 dosing independent of the regimen), “significant body weight losses”; in the data set on THP1-FRβ xenografts (~6 million E2 CAR-T + EC17 M/Th/M dose escalation, 6-day break (Cohort 5)), “little body weight loss during the first two cycles; also recorded: very mild body weight loss”. Further, in the data set on MDA-MB-231 xenografts (EC17 SIW at 500 nmol/kg), the “onset of CRS and body weight loss” value is “earliest onset of CRS and body weight loss”. Further, the “human IFNγ in mouse plasma, fold over tumor-bearing mice with CAR-T cells only” value is approximately 30 × with MDA-MB-231 xenografts (day 11 (~20 hours after previous EC17 dose), ~10 million CAR-T) and approximately 10 × in the data set on MDA-MB-231 xenografts (day 12 (~42 hours after previous EC17 dose), ~10 million CAR-T). Moreover, the CRS grade in the data set with MDA-MB-231 xenografts (tumor-bearing cohorts, continued EC17 dosing independent of the regimen, ~10 million CAR-T) is recorded as 2-3. The non-liver macrometastases entry in the data set on THP1-FRβ xenografts (EC17 M/Th/M dose escalation at a slow pace per cycle) is reported as “failed to control the non-liver macrometastases”.
